Values quoted from earlier work in US20050124791A1, “Ion channel” (priority 2001, published 2005).

Test system: adenylate cyclase from the outer segment of the bovine retina
Settings: membrane-associated and purified soluble enzyme

Nc1nc2c(ncn2[C@@H]2O[C@H](COP(=O)(O)OP(=O)(O)OP(=O)(O)O)[C@@H](O)[C@H]2O)c(=O)[nH]1 [GTP]
stimulation of the enzyme: Neither the membrane-associated nor the purified soluble enzyme can be stimulated

Nc1nc2c(ncn2[C@@H]2O[C@H](COP(=O)(O)OP(=O)(O)OP(O)(O)=S)[C@@H](O)[C@H]2O)c(=O)[nH]1 [GTPyS]
stimulation of the enzyme: Neither the membrane-associated nor the purified soluble enzyme can be stimulated

GMPPhT
stimulation of the enzyme: Neither the membrane-associated nor the purified soluble enzyme can be stimulated
